US7851637B2, “Compounds and methods for inhibiting the interaction of BCL proteins with binding partners” (Infinity Pharmaceuticals, Inc., priority 2004, dated 2010)

Assays:
[1] = molecular target: Bcl-2 (Homo sapiens, UniProt P10415); assay: Bcl-2 binding affinity analysis (fluorescence polarization binding assay)
Excerpt: (§1) Bcl-2 and Bcl-xL binding can be determined using a variety of known methods. One such assay is a sensitive and quantitative in vitro binding assay using fluorescence polarization (FP) described by Wang, J. -L.; Zhang, Z -J.; Choksi, S.; Sjam. S.; Lu, Z.; Croce, C. M.; Alnenri, E. S.; Komgold, R.; Huang, Z. Cell permeable Bcl-2 binding peptides: a chemical approach to apoptosis induction in tumor cells. Cancer Res. 2000, 60, 1498-1502).
(§2) Bcl-2 and Bcl-xL binding affinity analysis data is presented below for various compounds of the invention.

[2] = molecular target: Bcl-xL (Homo sapiens, UniProt Q07817); assay: Bcl-xL binding affinity analysis (fluorescence polarization binding assay); set-up: scale not given here
Bcl-xL, sequence (Q07817 whole entry): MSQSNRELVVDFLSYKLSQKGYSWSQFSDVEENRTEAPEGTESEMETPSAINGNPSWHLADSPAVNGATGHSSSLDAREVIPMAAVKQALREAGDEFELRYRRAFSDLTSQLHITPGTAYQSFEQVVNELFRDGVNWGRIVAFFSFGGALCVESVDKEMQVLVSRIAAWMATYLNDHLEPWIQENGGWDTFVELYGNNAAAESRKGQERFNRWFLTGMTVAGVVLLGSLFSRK
Excerpt: as §1, §2

Bcl-2, sequence (P10415 whole entry): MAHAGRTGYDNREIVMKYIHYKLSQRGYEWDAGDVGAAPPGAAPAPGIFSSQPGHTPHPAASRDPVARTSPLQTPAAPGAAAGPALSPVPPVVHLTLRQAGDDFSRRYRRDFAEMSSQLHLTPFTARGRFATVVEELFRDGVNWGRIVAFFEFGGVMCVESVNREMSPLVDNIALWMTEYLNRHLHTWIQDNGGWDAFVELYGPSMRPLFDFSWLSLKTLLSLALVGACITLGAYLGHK

SMILES	Ki [1] [nM]	Bcl-XL binding affinity Ki [2]
C[C@@H](O)[C@H]1[C@@H](CO)ON(Cc2cccc(C#CCN(C)Cc3ccccc3)c2)[C@H]1C(=O)NCCCN(C)c1ccccc1 [Compound 51]	800 to 6000	♯
C[C@H](O)[C@@H]1[C@H](CO)ON(Cc2cccc(C#C[C@@H](O)c3ccccc3)c2)[C@@H]1C(=O)N[C@H]1C[C@H]2CC([C@@H]1C)C2(C)C [Compound 52]	800 to 6000	♯
C[C@@H](O)[C@@H]1C(C(=O)NCCCn2cnc3ccccc32)N(Cc2cccc(C#CCNC(=O)c3ccccc3)c2)O[C@@H]1CO (stereo partly drawn) [Compound 55]	> 50000	♯♯
C[C@H](O)[C@@H]1[C@H](CO)ON(Cc2cccc(C#CCNC(=O)c3ccccc3)c2)[C@@H]1C(=O)N[C@H]1C[C@H]2CC([C@@H]1C)C2(C)C [Compound 57]	800 to 6000	♯
C[C@@H](O)[C@H]1[C@@H](CO)ON(Cc2cccc(C#CCNC(=O)c3ccccc3)c2)[C@H]1C(=O)NCc1ccc(-c2ccccc2)cc1 [Compound 60]	> 50000	♯♯
C[C@@H](O)[C@H]1[C@@H](CO)ON(Cc2cccc(C#CCNC(=O)c3ccccc3)c2)[C@H]1C(=O)NCCNCc1ccccc1 [Compound 61]	6000 to 50000	♯
C[C@@H](O)[C@@H]1C(C(=O)NCCCN(C)c2ccc(Cl)cc2)N(Cc2cccc(C#CCNC(=O)c3ccccc3)c2)O[C@@H]1CO (stereo partly drawn) [Compound 62]	6000 to 50000	♯♯
C[C@@H](O)[C@H]1[C@@H](CO)ON(Cc2cccc(C#CCNC(=O)c3ccccc3)c2)[C@H]1C(=O)NCc1ccc(Oc2ccccc2)cc1 [Compound 63]	800 to 6000	♯
C[C@@H](O)[C@H]1[C@@H](CO)ON(Cc2cccc(C#CCNC(=O)c3ccccc3)c2)[C@H]1C(=O)NCCCCc1ccccc1 [Compound 64]	800 to 6000	♯
CC(C)C[C@@H](CN(C)C)NC(=O)c1cccc(-c2cccc(CN3O[C@@H](CO)[C@@H]([C@H](C)O)[C@H]3C(=O)N[C@H]3C[C@H]4C[C@@H]([C@@H]3C)C4(C)C)c2)c1 [Compound 97]	800 to 6000	♯♯
CC(C)C[C@H](CN(C)C)NC(=O)c1cccc(-c2cccc(CN3O[C@@H](CO)[C@@H]([C@H](C)O)[C@H]3C(=O)N[C@H]3C[C@H]4C[C@@H]([C@@H]3C)C4(C)C)c2)c1 [Compound 99]	800 to 6000	♯♯
CC(C)[C@@H](CN(C)C)NC(=O)c1cccc(-c2cccc(CN3O[C@@H](CO)[C@@H]([C@H](C)O)[C@H]3C(=O)N[C@H]3C[C@H]4C[C@@H]([C@@H]3C)C4(C)C)c2)c1 [Compound 100]	< 800	♯
CC(C)[C@H](CN(C)C)NC(=O)c1cccc(-c2cccc(CN3O[C@@H](CO)[C@@H]([C@H](C)O)[C@H]3C(=O)N[C@H]3C[C@H]4C[C@@H]([C@@H]3C)C4(C)C)c2)c1 [Compound 103]	< 800	♯
C[C@@H]1[C@@H](NC(=O)[C@@H]2[C@H]([C@H](C)O)[C@H](CO)ON2Cc2cccc(-c3cccc(C(=O)NC[C@@H]4CCCN4C)c3)c2)C[C@H]2C[C@@H]1C2(C)C [Compound 104]	< 800	♯
C[C@@H]1[C@@H](NC(=O)[C@@H]2[C@H]([C@H](C)O)[C@H](CO)ON2Cc2cccc(-c3cccc(C(=O)NCCN4CCCCC4)c3)c2)C[C@H]2C[C@@H]1C2(C)C [Compound 105]	< 800	♯
CCN1CCC[C@@H]1CNC(=O)c1cccc(-c2cccc(CN3O[C@@H](CO)[C@@H]([C@H](C)O)[C@H]3C(=O)N[C@H]3C[C@H]4C[C@@H]([C@@H]3C)C4(C)C)c2)c1 [Compound 106]	< 800	♯
C[C@@H]1[C@@H](NC(=O)[C@@H]2[C@H]([C@H](C)O)[C@H](CO)ON2Cc2cccc(-c3cccc(C(=O)NCCN(C)C)c3)c2)C[C@H]2C[C@@H]1C2(C)C [Compound 107]	< 800	♯
CCN(CC)C(=O)c1ccc(-c2cccc(CN3O[C@@H](CO)[C@@H]([C@H](C)O)[C@H]3C(=O)N[C@H]3C[C@H]4C[C@@H]([C@@H]3C)C4(C)C)c2)cc1 [Compound 108]	< 800	♯
C[C@@H]1[C@@H](NC(=O)[C@@H]2[C@H]([C@H](C)O)[C@H](CO)ON2Cc2cccc(-c3ccc(C(=O)N4CCOCC4)cc3)c2)C[C@H]2C[C@@H]1C2(C)C [Compound 109]	< 800	♯
CC(CN(C)C)NC(=O)c1cccc(-c2cccc(CN3O[C@@H](CO)[C@@H]([C@H](C)O)[C@H]3C(=O)N[C@H]3C[C@H]4C[C@@H]([C@@H]3C)C4(C)C)c2)c1 (stereo partly drawn) [Compound 110]	< 800	♯

SMILES	Ki [1] [nM]	Bcl-XL binding affinity Ki [2]
C[C@@H]1[C@@H](NC(=O)[C@@H]2[C@H]([C@H](C)O)[C@H](CO)ON2Cc2cccc(-c3cccc(C(=O)NCCCN4CCCCC4)c3)c2)C[C@H]2C[C@@H]1C2(C)C [Compound 111]	< 800	♯
CCN(CC)CCNC(=O)c1cccc(-c2cccc(CN3O[C@@H](CO)[C@@H]([C@H](C)O)[C@H]3C(=O)N[C@H]3C[C@H]4C[C@@H]([C@@H]3C)C4(C)C)c2)c1 [Compound 112]	< 800	♯
C[C@@H]1[C@@H](NC(=O)[C@@H]2[C@H]([C@H](C)O)[C@H](CO)ON2Cc2cccc(-c3cccc(C(=O)NCCCCN(C)C)c3)c2)C[C@H]2C[C@@H]1C2(C)C [Compound 113]	< 800	♯
C[C@@H]1[C@@H](NC(=O)[C@@H]2[C@H]([C@H](C)O)[C@H](CO)ON2Cc2cccc(-c3cccc(C(=O)N[C@H]4CCNC4)c3)c2)C[C@H]2C[C@@H]1C2(C)C [Compound 114]	< 800	♯
C[C@@H]1[C@@H](NC(=O)[C@@H]2[C@H]([C@H](C)O)[C@H](CO)ON2Cc2cccc(-c3ccc(S(C)(=O)=O)cc3)c2)C[C@H]2C[C@@H]1C2(C)C [Compound 115]	< 800	♯
C[C@@H]1[C@@H](NC(=O)[C@@H]2[C@H]([C@H](C)O)[C@H](CO)ON2Cc2cccc(-c3cccc(C(=O)NCCN4CCN(C)CC4)c3)c2)C[C@H]2C[C@@H]1C2(C)C [Compound 116]	< 800	♯
C[C@@H]1[C@@H](NC(=O)[C@@H]2[C@H]([C@H](C)O)[C@H](CO)ON2Cc2cccc(-c3ccc(-n4ccnc4)cc3)c2)C[C@H]2C[C@@H]1C2(C)C [Compound 117]	< 800	♯♯
C[C@@H]1[C@@H](NC(=O)[C@@H]2[C@H]([C@H](C)O)[C@H](CO)ON2Cc2cccc(-c3ccc(C(=O)N(C)C)cc3)c2)C[C@H]2C[C@@H]1C2(C)C [Compound 118]	< 800	♯
C[C@@H]1[C@@H](NC(=O)[C@@H]2[C@H]([C@H](C)O)[C@H](CO)ON2Cc2cccc(-c3cccc(C(=O)N4CC[C@H](N(C)C)C4)c3)c2)C[C@H]2C[C@@H]1C2(C)C [Compound 119]	< 800	♯♯
C[C@@H]1[C@@H](NC(=O)[C@@H]2[C@H]([C@H](C)O)[C@H](CO)ON2Cc2cccc(-c3ccc(S(N)(=O)=O)cc3)c2)C[C@H]2C[C@@H]1C2(C)C [Compound 120]	< 800	♯♯
C[C@@H]1[C@@H](NC(=O)[C@@H]2[C@H]([C@H](C)O)[C@H](CO)ON2Cc2cccc(-c3cccc(C(=O)NCCCO)c3)c2)C[C@H]2C[C@@H]1C2(C)C [Compound 121]	< 800	♯♯
CCNC(=O)c1cccc(-c2cccc(CN3O[C@@H](CO)[C@@H]([C@H](C)O)[C@H]3C(=O)N[C@H]3C[C@H]4C[C@@H]([C@@H]3C)C4(C)C)c2)c1 [Compound 122]	< 800	♯♯
C[C@@H]1[C@@H](NC(=O)[C@@H]2[C@H]([C@H](C)O)[C@H](CO)ON2Cc2cccc(-c3cccc(C(=O)NCCCn4ccnc4)c3)c2)C[C@H]2C[C@@H]1C2(C)C [Compound 123]	< 800	♯
CON(C)C(=O)c1ccc(-c2cccc(CN3O[C@@H](CO)[C@@H]([C@H](C)O)[C@H]3C(=O)N[C@H]3C[C@H]4C[C@@H]([C@@H]3C)C4(C)C)c2)cc1 [Compound 124]	< 800	♯
C[C@@H]1[C@@H](NC(=O)[C@@H]2[C@H]([C@H](C)O)[C@H](CO)ON2Cc2cccc(-c3cccc(C(=O)N4CCCN(C)CC4)c3)c2)C[C@H]2C[C@@H]1C2(C)C [Compound 125]	< 800	♯♯
C[C@@H]1[C@@H](NC(=O)[C@@H]2[C@H]([C@H](C)O)[C@H](CO)ON2Cc2cccc(-c3cccc(C(=O)N[C@H]4CCN(C)C4)c3)c2)C[C@H]2C[C@@H]1C2(C)C [Compound 126]	< 800	♯
C[C@@H]1[C@@H](NC(=O)[C@@H]2[C@H]([C@H](C)O)[C@H](CO)ON2Cc2cccc(-c3cccc(C(=O)NCCc4c[nH]cn4)c3)c2)C[C@H]2C[C@@H]1C2(C)C [Compound 127]	< 800	♯♯
C[C@@H]1[C@@H](NC(=O)[C@@H]2[C@H]([C@H](C)O)[C@H](CO)ON2Cc2cccc(-c3ccc4c(c3)C(=O)N(C)C4=O)c2)C[C@H]2C[C@@H]1C2(C)C [Compound 128]	< 800	♯
C[C@@H]1[C@@H](NC(=O)[C@@H]2[C@H]([C@H](C)O)[C@H](CO)ON2Cc2cccc(-c3cccc(C(=O)N4CCN(C)CC4)c3)c2)C[C@H]2C[C@@H]1C2(C)C [Compound 129]	< 800	♯♯
